Reference: US12215140B2, “Method of stabilizing protein contained in specimen and solution for stabilizing protein contained in specimen” (EIKEN KAGAKU KABUSHIKI KAISHA, priority 2018, dated 2025)

System: hemoglobin-haptoglobin complex
Assay: Stability of hemoglobin (as hemoglobin-haptoglobin complex) in samples preserved at 37° C. in preservation solution containing 1 unit/L haptoglobin, Hb measured by latex agglutination method (Examples 1 to 7)
Set-up: species or system human
Details: for Hb concentration / Recovery ratio with respect to Hb concentration after 0 days: 37° C.
Experimental: Preservation solutions were prepared with the addition of 40 mmol/L HEPES (pH 6.8), 0.1% BSA, 0.1% NaN3, 1 unit/L haptoglobin, and 0 to 100 mmol/L phenylboronic acid. Samples obtained by adding hemoglobin-added fecal specimens to the preservation solutions so that the fecal concentration would be 0.5% were preserved at 37° C. for 0, 7, 14, and 21 days. The fecal specimens were added with hemoglobin having an amount such that the hemoglobin concentration in the samples would be about 300 μg/L. Instead of the fecal specimens to which hemoglobin was added, samples containing no fecal specimens, in which hemoglobin was added to the preservation solutions so that the hemoglobin concentration in the samples would be 300 μg/L, were similarly preserved. The hemoglobin (Hb) concentrations (μg/L) in the preserved samples were measured by the latex agglutination method.
The concentrations of hemoglobin were measured using “OC-Hemodia (registered trademark) Auto III ‘EIKEN’” (available from EIKEN CHEMICAL CO., LTD.) as a measurement reagent and “OC-sensor DIANA” (available from EIKEN CHEMICAL CO., LTD.) as a measurement device. The above measurement reagent contains latex particles immobilizing an anti-human hemoglobin rabbit polyclonal antibody.
From the measured concentrations of hemoglobin, the recovery ratios (%) were calculated with respect to the hemoglobin concentrations immediately after the fecal specimens were added to the preservation solutions (i.e., concentrations 0 days after the fecal specimens were added).
(§1) For comparative examples, preservation solutions to which no arylboronic acid was added were prepared, and testing was conducted in the same manner.
(§2) The concentration of phenylboronic acid in the preservation solutions of Example 1 was fixed to 15 mmol/L, preservation solutions to which a sugar (sorbitol, sucrose, trehalose, glucose, fructose, or mannitol) was further added at 50 mmol/L or 100 mmol/L or preservation solutions to which no sugar was added were prepared, and testing was conducted in the same manner as in Example 1. For comparative examples, preservation solutions to which the phenylboronic acid and sugar were not added were prepared, and testing was conducted in the same manner.
Preservation solutions in which sorbitol, sucrose, trehalose, glucose, fructose, or mannitol was added at 100 mmol/L to the preservation solutions of Example 1 containing no phenylboronic acid were prepared, and testing was conducted in the same manner as in Example 1. For comparison, the same testing was conducted without adding these sugars.
as §2, with “sorbitol” for “a sugar (sorbitol, sucrose, trehalose, glucose, fructose, or mannitol)”, “was” for “was further”, “10 to 500” for “50”, “sucrose was added at 10 to 250” for “100”
as §1

[1] = Feces 1, sugar 50 mmol/L + phenylboronic acid 15 mmol/L, 0 days
[2] = Feces 1, sugar 50 mmol/L + phenylboronic acid 15 mmol/L, 7 days
[3] = Feces 1, sugar 50 mmol/L + phenylboronic acid 15 mmol/L, 14 days
[4] = Feces 1, sugar 50 mmol/L + phenylboronic acid 15 mmol/L, 21 days
[5] = Feces 1, sugar 100 mmol/L + phenylboronic acid 15 mmol/L, 0 days
[6] = Feces 1, sugar 100 mmol/L + phenylboronic acid 15 mmol/L, 7 days
[7] = Feces 1, sugar 100 mmol/L + phenylboronic acid 15 mmol/L, 14 days
[8] = Feces 1, sugar 100 mmol/L + phenylboronic acid 15 mmol/L, 21 days
[9] = Feces 1, sugar 100 mmol/L, no phenylboronic acid, 0 days
[10] = Feces 1, sugar 100 mmol/L, no phenylboronic acid, 7 days
[11] = Feces 1, sugar 100 mmol/L, no phenylboronic acid, 14 days
[12] = Feces 1, sugar 100 mmol/L, no phenylboronic acid, 21 days
[13] = Feces 2, sugar 50 mmol/L + phenylboronic acid 15 mmol/L, 0 days
[14] = Feces 2, sugar 50 mmol/L + phenylboronic acid 15 mmol/L, 7 days
[15] = Feces 2, sugar 50 mmol/L + phenylboronic acid 15 mmol/L, 14 days
[16] = Feces 2, sugar 50 mmol/L + phenylboronic acid 15 mmol/L, 21 days
[17] = Feces 2, sugar 100 mmol/L + phenylboronic acid 15 mmol/L, 0 days
[18] = Feces 2, sugar 100 mmol/L + phenylboronic acid 15 mmol/L, 7 days
[19] = Feces 2, sugar 100 mmol/L + phenylboronic acid 15 mmol/L, 14 days
[20] = Feces 2, sugar 100 mmol/L + phenylboronic acid 15 mmol/L, 21 days
[21] = Feces 2, sugar 100 mmol/L, no phenylboronic acid, 0 days
[22] = Feces 2, sugar 100 mmol/L, no phenylboronic acid, 7 days
[23] = Feces 2, sugar 100 mmol/L, no phenylboronic acid, 14 days
[24] = Feces 2, sugar 100 mmol/L, no phenylboronic acid, 21 days
[25] = Feces 3, sugar 50 mmol/L + phenylboronic acid 15 mmol/L, 0 days
[26] = Feces 3, sugar 50 mmol/L + phenylboronic acid 15 mmol/L, 7 days
[27] = Feces 3, sugar 50 mmol/L + phenylboronic acid 15 mmol/L, 14 days
[28] = Feces 3, sugar 50 mmol/L + phenylboronic acid 15 mmol/L, 21 days
[29] = Feces 3, sugar 100 mmol/L + phenylboronic acid 15 mmol/L, 0 days
[30] = Feces 3, sugar 100 mmol/L + phenylboronic acid 15 mmol/L, 7 days
[31] = Feces 3, sugar 100 mmol/L + phenylboronic acid 15 mmol/L, 14 days
[32] = Feces 3, sugar 100 mmol/L + phenylboronic acid 15 mmol/L, 21 days
[33] = Feces 3, sugar 100 mmol/L, no phenylboronic acid, 0 days
[34] = Feces 3, sugar 100 mmol/L, no phenylboronic acid, 7 days
[35] = Feces 3, sugar 100 mmol/L, no phenylboronic acid, 14 days
[36] = Feces 3, sugar 100 mmol/L, no phenylboronic acid, 21 days
[37] = No feces, sugar 50 mmol/L + phenylboronic acid 15 mmol/L, 0 days
[38] = No feces, sugar 50 mmol/L + phenylboronic acid 15 mmol/L, 7 days
[39] = No feces, sugar 50 mmol/L + phenylboronic acid 15 mmol/L, 14 days
[40] = No feces, sugar 50 mmol/L + phenylboronic acid 15 mmol/L, 21 days
[41] = No feces, sugar 100 mmol/L + phenylboronic acid 15 mmol/L, 7 days
[42] = No feces, sugar 100 mmol/L + phenylboronic acid 15 mmol/L, 14 days
[43] = No feces, sugar 100 mmol/L + phenylboronic acid 15 mmol/L, 21 days
[44] = No feces, sugar 100 mmol/L, no phenylboronic acid, 0 days
[45] = No feces, sugar 100 mmol/L, no phenylboronic acid, 7 days
[46] = No feces, sugar 100 mmol/L, no phenylboronic acid, 14 days
[47] = No feces, sugar 100 mmol/L, no phenylboronic acid, 21 days

Structure (SMILES): O=C(CO)[C@@H](O)[C@H](O)[C@H](O)CO [Fructose, fructose]
- Hb concentration [1]: 297 µg/L
- Recovery ratio with respect to Hb concentration after 0 days [1]: 100%
- Hb concentration [2]: 294 µg/L
- Recovery ratio with respect to Hb concentration after 0 days [2]: 99%
- Hb concentration [3]: 285 µg/L
- Recovery ratio with respect to Hb concentration after 0 days [3]: 96%
- Hb concentration [4]: 280 µg/L
- Recovery ratio with respect to Hb concentration after 0 days [4]: 94%
- Hb concentration [5]: 287 µg/L
- Recovery ratio with respect to Hb concentration after 0 days [5]: 100%
- Hb concentration [6]: 276 µg/L
- Recovery ratio with respect to Hb concentration after 0 days [6]: 96%
- Hb concentration [7]: 247 µg/L
- Recovery ratio with respect to Hb concentration after 0 days [7]: 86%
- Hb concentration [8]: 228 µg/L
- Recovery ratio with respect to Hb concentration after 0 days [8]: 79%
- Hb concentration [9]: 285 µg/L
- Recovery ratio with respect to Hb concentration after 0 days [9]: 100%
- Hb concentration [10]: 127 µg/L
- Recovery ratio with respect to Hb concentration after 0 days [10]: 45%
- Hb concentration [11]: 85 µg/L
- Recovery ratio with respect to Hb concentration after 0 days [11]: 30%
- Hb concentration [12]: 81 µg/L
- Recovery ratio with respect to Hb concentration after 0 days [12]: 28%
- Hb concentration [13]: 270 µg/L
- Recovery ratio with respect to Hb concentration after 0 days [13]: 100%
- Hb concentration [14]: 275 µg/L
- Recovery ratio with respect to Hb concentration after 0 days [14]: 102%
- Hb concentration [15]: 243 µg/L
- Recovery ratio with respect to Hb concentration after 0 days [15]: 90%
- Hb concentration [16]: 222 µg/L
- Recovery ratio with respect to Hb concentration after 0 days [16]: 82%
- Hb concentration [17]: 280 µg/L
- Recovery ratio with respect to Hb concentration after 0 days [17]: 100%
- Hb concentration [18]: 264 µg/L
- Recovery ratio with respect to Hb concentration after 0 days [18]: 94%
- Hb concentration [19]: 235 µg/L
- Recovery ratio with respect to Hb concentration after 0 days [19]: 84%
- Hb concentration [20]: 212 µg/L
- Recovery ratio with respect to Hb concentration after 0 days [20]: 76%
- Hb concentration [21]: 273 µg/L
- Recovery ratio with respect to Hb concentration after 0 days [21]: 100%
- Hb concentration [22]: 100 µg/L
- Recovery ratio with respect to Hb concentration after 0 days [22]: 37%
- Hb concentration [23]: 56 µg/L
- Recovery ratio with respect to Hb concentration after 0 days [23]: 21%
- Hb concentration [24]: 35 µg/L
- Recovery ratio with respect to Hb concentration after 0 days [24]: 13%
- Hb concentration [25]: 272 µg/L
- Recovery ratio with respect to Hb concentration after 0 days [25]: 100%
- Hb concentration [26]: 238 µg/L
- Recovery ratio with respect to Hb concentration after 0 days [26]: 88%
- Hb concentration [27]: 218 µg/L
- Recovery ratio with respect to Hb concentration after 0 days [27]: 80%
- Hb concentration [28]: 203 µg/L
- Recovery ratio with respect to Hb concentration after 0 days [28]: 75%
- Hb concentration [29]: 276 µg/L
- Recovery ratio with respect to Hb concentration after 0 days [29]: 100%
- Hb concentration [30]: 244 µg/L
- Recovery ratio with respect to Hb concentration after 0 days [30]: 88%
- Hb concentration [31]: 222 µg/L
- Recovery ratio with respect to Hb concentration after 0 days [31]: 80%
- Hb concentration [32]: 204 µg/L
- Recovery ratio with respect to Hb concentration after 0 days [32]: 74%
- Hb concentration [33]: 265 µg/L
- Recovery ratio with respect to Hb concentration after 0 days [33]: 100%
- Hb concentration [34]: 83 µg/L
- Recovery ratio with respect to Hb concentration after 0 days [34]: 31%
- Hb concentration [35]: 41 µg/L
- Recovery ratio with respect to Hb concentration after 0 days [35]: 15%
- Hb concentration [36]: 39 µg/L
- Recovery ratio with respect to Hb concentration after 0 days [36]: 15%
- Hb concentration [37]: 286 µg/L
- Recovery ratio with respect to Hb concentration after 0 days [37]: 100%
- Hb concentration [38]: 255 µg/L
- Recovery ratio with respect to Hb concentration after 0 days [38]: 89%
- Hb concentration [39]: 261 µg/L
- Recovery ratio with respect to Hb concentration after 0 days [39]: 91%
- Hb concentration [40]: 275 µg/L
- Recovery ratio with respect to Hb concentration after 0 days [40]: 96%
- Recovery ratio with respect to Hb concentration after 0 days (No feces, sugar 100 mmol/L + phenylboronic acid 15 mmol/L, 0 days): 100%
- Hb concentration [41]: 245 µg/L
- Recovery ratio with respect to Hb concentration after 0 days [41]: 87%
- Hb concentration [42]: 251 µg/L
- Recovery ratio with respect to Hb concentration after 0 days [42]: 89%
- Hb concentration [43]: 262 µg/L
- Recovery ratio with respect to Hb concentration after 0 days [43]: 93%
- Hb concentration [44]: 250 µg/L
- Recovery ratio with respect to Hb concentration after 0 days [44]: 100%
- Hb concentration [45]: 215 µg/L
- Recovery ratio with respect to Hb concentration after 0 days [45]: 86%
- Hb concentration [46]: 196 µg/L
- Recovery ratio with respect to Hb concentration after 0 days [46]: 78%
- Hb concentration [47]: 177 µg/L
- Recovery ratio with respect to Hb concentration after 0 days [47]: 71%
- recovery ratio of hemoglobin in the samples containing fecal specimens (sugar 100 mmol/L, preservation solutions containing no phenylboronic acid): does not improve
- recovery ratio of hemoglobin in the sample (sugar 50 or 100 mmol/L further added to phenylboronic acid 15 mmol/L, Feces 1, Feces 2, Feces 3): further improved
